# From US20240122945A1, “USE OF NEUROACTIVE STEROIDS FOR TREATMENT OF SEXUAL DYSFUNCTION” (Sage Therapeutics, Inc., priority 2021, published 2024)
# Test system: Patients With Major Depressive Disorder
# Test: Phase 3 MOUNTAIN study: sexual functioning by Changes in Sexual Functioning Questionnaire-14 (CSFQ-14), post-hoc analysis
# Format: in vivo, human
# Conditions: for Odds Ratio for Sexual Dysfunction (Compound (1) relative to placebo): GEE model
# Procedure: Results from the multicenter, double-blind, randomized, placebo-controlled Phase 3 MOUNTAIN trial (NCT03672175) evaluating the efficacy, safety, and tolerability of 14-day treatment with 20 mg or 30 mg of Compound (1) compared with placebo (PBO) have been previously presented (Clayton, A. H. Presented at SOBP 2020 Virtual Meeting).
# This analysis assessed the effect of 30 mg of Compound (1) treatment compared with PBO on sexual function, as measured by the Changes in Sexual Functioning Questionnaire-14 (CSFQ-14), in the MOUNTAIN trial.
# Adult outpatients (18-65 years; n=581) with MDD (HAMD-17 total score≥22 and MADRS total score≥32) were randomized 1:1:1 to Compound (1) 20 mg (data not shown), Compound (1) 30 mg, or PBO, once-nightly for 2 weeks, with follow-up through Day 42 (see FIG. 1 for Study Design). Standard of care antidepressants that had been taken at the same dose for ≥60 days prior to Day 1 of the trial were permitted. Exclusion criteria included attempted suicide associated with the current depressive episode; treatment-resistant depression, and medical history of bipolar disorder, schizophrenia, and/or schizoaffective disorder.
# Exploratory, post-hoc analyses included evaluation of sexual functioning using the 14-item; self-report CSFQ-14 at baseline, Day 15, 28, and 42.
# Male and female sexual functioning was evaluated as an exploratory endpoint with the validated, 14-item, patient-reported CSFQ-14 scores at baseline, Day 15, Day 28, and Day 42. CSFQ-14 also has 5 sub-scales that measure pleasure, desire/frequency, desire/interest, arousal/excitement, and orgasm/completion, which were also evaluated. Sexual dysfunction was defined as a CSFQ-14TS of ≤41 for females and ≤47 for males. Mixed model for repeated measure and generalized estimating equation were used for analysis on patients with a baseline HAMD-17 total score≥24 (n=323).
# The model used was a generalized estimating equation (GEE) for binary response model, with factors for treatment (Compound (1) 30 mg or placebo), baseline CSFQ-14 total score, antidepressant use at baseline (Yes or No), assessment time point, and time point-by-treatment interaction with exchangeable covariance structure.
# Odds ratio is the estimate of the odds of having CSFQ sexual dysfunction for subjects treated with Compound (1) relative to that for subjects treated with placebo.
compound,measurement,setting,value
"C[C@@]1(O)CC[C@H]2[C@H](CC[C@@H]3[C@@H]2CC[C@]2(C)[C@@H](C(=O)Cn4cc(C#N)cn4)CC[C@@H]32)C1 [Compound (1), 1-(2-((3R,5R,8R,9R,10S,13S,14S,17S)-3-hydroxy-3,13-dimethylhexadecahydro-1H-cyclopenta[a]phenanthren-17-yl)-2-oxoethyl)-1H-pyrazole-4-carbonitrile]",difference vs PBO in percentage of male patients with sexual dysfunction across individual CSFQ-14 subscales,"30 mg, Days 15, 28, 42, exception: arousal/excitement at Day 42 (FIG. 5)",no significant differences
same,difference vs PBO in percentage of female patients with sexual dysfunction across individual CSFQ-14 subscales,"30 mg, Days 15, 28, 42, exception: desire/frequency at Day 15 and orgasm/completion at Day 28 (FIG. 4)",no significant differences
same,difference vs PBO in percentage of patients with sexual dysfunction in the individual CSFQ-14 subscales,"30 mg, all patients",no significant differences
same,treatment-emergent sexual dysfunction,"30 mg, overall conclusion",not associated with treatment-emergent sexual dysfunction
same,impairment of sexual function compared to placebo during the trial,"30 mg, through Day 42",No impairment of sexual function
same,Odds Ratio for Sexual Dysfunction (Compound (1) relative to placebo),"Day 15, Men, 30 mg, CSFQ total score<=47 = sexual dysfunction",0.72
same,Odds Ratio for Sexual Dysfunction (Compound (1) relative to placebo),"Day 15, Women, 30 mg, CSFQ total score<=41 = sexual dysfunction",1.00
same,Odds Ratio for Sexual Dysfunction (Compound (1) relative to placebo),"Day 28, Men, 30 mg, CSFQ total score<=47 = sexual dysfunction",1.07
same,Odds Ratio for Sexual Dysfunction (Compound (1) relative to placebo),"Day 28, Women, 30 mg, CSFQ total score<=41 = sexual dysfunction",1.01
same,percentage of all patients with sexual dysfunction as assessed by CSFQ-14TS thresholds,"Day 42 (181/272), from 82.4% (266/323) at baseline, Compound (1) 30 mg- and PBO-treated patients together",66.5%
same,Odds Ratio for Sexual Dysfunction (Compound (1) relative to placebo),"Day 42, Men, 30 mg, CSFQ total score<=47 = sexual dysfunction",0.88
same,Odds Ratio for Sexual Dysfunction (Compound (1) relative to placebo),"Day 42, Women, 30 mg, CSFQ total score<=41 = sexual dysfunction",0.91
